In patent US20260109707A1, “HETEROBIFUNCTIONAL COMPOUNDS AND METHODS OF TREATING DISEASE” (Halda Therapeutics OpCo. Inc., priority 2022, published 2026):
Like-named read-outs stand apart in the source and are kept apart here.

How the values were obtained:
[1] = tested on: T-Rex 293 cell line SC3 cells lacking increased expression of androgen receptor protein; assay: Cellular growth inhibition assay, T-Rex 293 SC3 cells without doxycycline (CellTiter-Glo, 72 hours); assay type: cell-based; conditions: T-Rex 293 cell line SC3 cells not exposed to doxycycline (lacking increased androgen receptor expression)
Outline: (§1)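 Doxycycline (10 ng/mL) was either included or omitted to toggle wild-type androgen receptor expression in SC3 cells, a T-Rex 293 clone, grown in stripped-serum, phenol red-free medium. After 72 hours with compound, viable cells were quantified by CellTiter-Glo 2.0.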

VCaP cells = assay: Cellular growth inhibition assay for VCaP cells (CellTiter-Glo, 72 hours); assay type: cell-based, human
Outline: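 Luminescent viability signal after 72 h of compound exposure gave GI50 values by four-parameter nonlinear regression. Compounds were added in 0.5% DMSO to cells plated 24 h earlier at 5000/well in DMEM containing 10% FBS.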

[2] = tested on: T-Rex 293 cell line SC3 cells having increased expression of androgen receptor protein due to exposure to doxycycline; assay: Cellular growth inhibition assay, T-Rex 293 SC3 cells with doxycycline (CellTiter-Glo, 72 hours); assay type: cell-based; conditions: T-Rex 293 SC3 cells with increased androgen receptor expression due to doxycycline (10 ng/mL)
Outline: as §1

Structure (SMILES)	GI50 (VCaP cells; Homo sapiens, VCaP, 72 h) [nM]	GI50 (VCaP cells) [nM]	GI50 ([1]; 72 h) [nM]	GI50 ([2]; 72 h) [nM]	GI50 [2] [nM]	GI50 [1] [nM]
Cc1sc2c(c1C)C(c1ccc(OC3CC(CC4CCN(c5ccc(C(=O)N[C@H]6CC[C@H](Oc7ccc(C#N)c(Cl)c7)CC6)nn5)CC4)C3)cc1)=NC1(CC1)c1nnc(C)n1-2 (stereo partly drawn) [I-528]	< 500	–	> 3000	< 500	–	–
Cc1sc2c(c1C)C(c1ccc(OCC3CC4(CCCN(c5ccc(C(=O)N[C@H]6CC[C@H](Oc7ccc(C#N)c(Cl)c7)CC6)nn5)C4)C3)cc1)=NCc1nnc(C)n1-2 (stereo partly drawn) [I-446]	–	< 500	> 3000	–	< 500	–
Cc1sc2c(c1C)C(c1ccc(N3C4CCC3CN(c3ncc(C(=O)N[C@H]5CC[C@H](Oc6ccc(C#N)c(Cl)c6)CC5)cn3)C4)cc1)=NC(Cc1ncco1)c1nnc(C)n1-2 (stereo partly drawn) [I-785]	> 3000	–	–	–	< 500	500 to 1500
CCNC(=O)C[C@@H]1N=C(c2cccc(OCCOCCOC3CCN(c4ccc(C(=O)N[C@H]5CC[C@H](Oc6ccc(C#N)c(Cl)c6)CC5)nn4)CC3)c2)c2c(sc(C)c2C)-n2c(C)nnc21 [I-23]	> 3000	–	1500 to 3000	< 500	–	–
COCC1N=C(c2ccc(C#CC3CC4(C3)CN(c3ccc(C(=O)N[C@H]5CC[C@H](Oc6ccc(C#N)c(Cl)c6)CC5)nn3)C4)cc2)c2c(sc(C)c2C)-n2c(C)nnc21 (stereo partly drawn) [I-571]	–	< 500	–	–	< 500	< 500
Cc1sc2c(c1C)C(c1ccc(CC3CC4(CCCN(c5ccc(C(=O)N[C@H]6CC[C@H](Oc7ccc(C#N)c(Cl)c7)CC6)nn5)C4)C3)cc1)=NCc1nnc(C)n1-2 (stereo partly drawn) [I-488]	–	< 500	> 3000	–	< 500	–
Cc1sc2c(c1C)C(c1ccc(OC3CCC4(CCCN(c5ccc(C(=O)N[C@H]6CC[C@H](Oc7ccc(C#N)c(Cl)c7)CC6)nn5)C4)C3)cc1)=N[C@@H](C)c1nnc(C)n1-2 (stereo partly drawn) [I-537]	–	> 3000	–	–	< 500	> 3000
Cc1sc2c(c1C)C(c1ccc(N3CC4(CC(CCc5ccc(C(=O)N[C@H]6CC[C@H](Oc7ccc(C#N)c(Cl)c7)CC6)nn5)C4)C3)cc1)=N[C@@H](C)c1nnc(C)n1-2 [I-594]	500 to 1500	–	500 to 1500	< 500	–	–
Cc1sc2c(c1C)C(c1ccc(CC3CCC4(C3)CN(c3ccc(C(=O)N[C@H]5CC[C@H](Oc6ccc(C#N)c(Cl)c6)CC5)nn3)CCO4)cc1)=N[C@@H](C)c1nnc(C)n1-2 (stereo partly drawn) [I-579]	–	1500 to 3000	–	–	< 500	< 500
Cc1sc2c(c1C)C(c1ccc(OC3CCC4(CCCN(c5ccc(C(=O)N[C@H]6CC[C@H](Oc7ccc(C#N)c(Cl)c7)CC6)nn5)C4)C3)cc1)=N[C@@H](C)c1nnc(C)n1-2 (stereo partly drawn) [I-538]	–	< 500	–	–	< 500	> 3000
Cc1sc2c(c1C)C(c1ccc(N3CCC4(CC3)CCN(c3ccc(C(=O)N[C@H]5CC[C@H](Oc6ccc(C#N)c(Cl)c6)CC5)nn3)CC4)cc1)=NC1(CC1)c1nnc(C)n1-2 [I-490]	> 3000	–	> 3000	< 500	–	–
Cc1sc2c(c1C)C(c1ccc(N3CC4(CC(Cc5ccc(C(=O)N[C@H]6CC[C@H](Oc7ccc(C#N)c(Cl)c7)CC6)nn5)C4)C3)cc1)=N[C@@H](C)c1nnc(C)n1-2 [I-604]	< 500	–	< 500	< 500	–	–
Cc1sc2c(c1C)C(c1ccc(N3CCC4(CCN(c5ccc(C(=O)N[C@H]6CC[C@H](Oc7ccc(C#N)c(Cl)c7)CC6)nn5)C4)C3)cc1)=NC1(CC1)c1nnc(C)n1-2 (stereo partly drawn) [I-522]	–	500 to 1500	–	–	< 500	< 500
Cc1sc2c(c1C)C(c1ccc(N3CC(C4CCN(c5ccc(C(=O)N[C@H]6CC[C@H](Oc7ccc(C#N)c(Cl)c7)CC6)nn5)CC4)C3)cc1)=NCc1nnc(C)n1-2 [I-451]	500 to 1500	–	> 3000	< 500	–	–
Cc1sc2c(c1C)C(c1ccc(OC3CC4(CCN(c5ccc(C(=O)N[C@H]6CC[C@H](Oc7ccc(C#N)c(Cl)c7)CC6)nn5)CC4)C3)nc1)=N[C@@H](C)c1nnc(C)n1-2 [I-462]	–	< 500	–	–	< 500	> 3000
Cc1sc2c(c1C)C(c1ccc(N3CCC(CCc4ccc(C(=O)N[C@H]5CC[C@H](Oc6ccc(C#N)c(Cl)c6)CC5)nn4)CC3)cc1)=N[C@@H](C)c1nnc(C)n1-2 [I-596]	< 500	–	< 500	< 500	–	–
CC[C@@H]1N=C(c2ccc(C#CC3CC4(C3)CN(c3ccc(C(=O)N[C@H]5CC[C@H](Oc6ccc(C#N)c(Cl)c6)CC5)nn3)C4)cc2)c2c(sc(C)c2C)-n2c(C)nnc21 [I-531]	< 500	–	< 500	< 500	–	–

More lines, main results first:

GI50 (VCaP cells; Homo sapiens, VCaP, 72 h) [nM]	GI50 (VCaP cells) [nM]	Structure (SMILES)	GI50 ([1]; 72 h) [nM]	GI50 ([2]; 72 h) [nM]	GI50 [2] [nM]	GI50 [1] [nM]
–	< 500	Cc1sc2c(c1C)C(c1ccc(OCC3CCC4(C3)CN(c3ccc(C(=O)N[C@H]5CC[C@H](Oc6ccc(C#N)c(Cl)c6)CC5)nn3)CCO4)cc1)=N[C@@H](C)c1nnc(C)n1-2 (stereo partly drawn) [I-667]	–	< 500	–	< 500
< 500	–	Cc1sc2c(c1C)C(c1ccc(NCCCC3CCN(c4ncc(C(=O)N[C@H]5CC[C@H](Oc6ccc(C#N)c(Cl)c6)CC5)cn4)CC3)cc1)=NC(Cc1ncco1)c1nnc(C)n1-2 (stereo partly drawn) [I-806]	< 500	< 500	–	–
–	< 500	Cc1sc2c(c1C)C(c1ccc(CC3CC4(CCN(c5ccc(C(=O)N[C@H]6CC[C@H](Oc7ccc(C#N)c(Cl)c7)CC6)nn5)CC4)C3)cc1)=NC(C(F)(F)F)c1nnc(C)n1-2 (stereo partly drawn) [I-729]	–	–	< 500	> 3000
< 500	–	Cc1sc2c(c1C)C(c1ccc(N3CCC4(CCN(c5ccc(C(=O)N[C@H]6CC[C@H](Oc7ccc(C#N)c(Cl)c7)CC6)nn5)CC4)C3)cc1)=NC(C(F)(F)F)c1nnc(C)n1-2 (stereo partly drawn) [I-726]	> 3000	–	< 500	–
< 500	–	Cc1sc2c(c1C)C(c1cccc(OCCC3CCN(c4ccc(C(=O)N[C@H]5CC[C@H](Oc6ccc(C#N)c(Cl)c6)CC5)nn4)CC3)c1)=N[C@@H](C)c1nnc(C)n1-2 [I-647]	> 3000	< 500	–	–
< 500	–	Cc1sc2c(c1C)C(c1ccc(NC3CCCN(c4ncc(C(=O)N[C@H]5CC[C@H](Oc6ccc(C#N)c(Cl)c6)CC5)cn4)CC3)cc1)=NC(Cc1ncco1)c1nnc(C)n1-2 (stereo partly drawn) [I-789]	< 500	< 500	–	–
500 to 1500	–	Cc1sc2c(c1C)C(c1cccc(N3CCC4(CCN(c5ccc(C(=O)N[C@H]6CC[C@H](Oc7ccc(C#N)c(Cl)c7)CC6)nn5)C4)C3)c1)=N[C@@H](C)c1nnc(C)n1-2 (stereo partly drawn) [I-682]	–	< 500	–	500 to 1500
–	< 500	Cc1sc2c(c1C)C(c1cccc(OC3CCC4(CCN(c5ccc(C(=O)N[C@H]6CC[C@H](Oc7ccc(C#N)c(Cl)c7)CC6)nn5)C4)C3)c1)=N[C@@H](C)c1nnc(C)n1-2 (stereo partly drawn) [I-749]	–	–	< 500	500 to 1500
< 500	–	Cc1sc2c(c1C)C(c1ccc(C#CC3CC4(C3)CN(c3ccc(C(=O)N[C@H]5CC[C@H](Oc6ccc(C#N)c(Cl)c6)CC5)nn3)C4)cc1)=NC(C(F)(F)F)c1nnc(C)n1-2 (stereo partly drawn) [I-723]	–	–	> 3000	> 3000
< 500	–	Cc1sc2c(c1C)C(c1cccc(CN3CCC4(CC3)CCN(c3ccc(C(=O)N[C@H]5CC[C@H](Oc6ccc(C#N)c(Cl)c6)CC5)nn3)C4)c1)=N[C@@H](C)c1nnc(C)n1-2 [I-688]	500 to 1500	< 500	–	–
< 500	–	Cc1sc2c(c1C)C(c1ccccc1N1CC3(CCN(c4ccc(C(=O)N[C@H]5CC[C@H](Oc6ccc(C#N)c(Cl)c6)CC5)nn4)CC3)C1)=N[C@@H](C)c1nnc(C)n1-2 [I-751]	< 500	< 500	–	–
–	< 500	Cc1sc2c(c1C)C(c1ccc(N3CCC4(CCN(c5ccc(C(=O)N[C@H]6CC[C@H](Oc7ccc(C#N)c(Cl)c7)CC6)nn5)CC4)C3)cc1)=NC(C(F)(F)F)c1nnc(C)n1-2 (stereo partly drawn) [I-727]	–	–	> 3000	> 3000
< 500	–	Cc1sc2c(c1C)C(c1ccc(N[C@H]3CC[C@H](CNc4ncc(C(=O)N[C@H]5CC[C@H](Oc6ccc(C#N)c(Cl)c6)CC5)cn4)CC3)cc1)=NC(Cc1ncco1)c1nnc(C)n1-2 (stereo partly drawn) [I-796]	< 500	< 500	–	–
–	< 500	Cc1sc2c(c1C)C(c1ccccc1OC1CCC3(CC1)CCN(c1ccc(C(=O)N[C@H]4CC[C@H](Oc5ccc(C#N)c(Cl)c5)CC4)nn1)C3)=N[C@@H](C)c1nnc(C)n1-2 (stereo partly drawn) [I-753]	–	–	< 500	< 500
< 500	–	Cc1sc2c(c1C)C(c1ccc(N3CC(C4CCC(Cc5ccc(C(=O)N[C@H]6CC[C@H](Oc7ccc(C#N)c(Cl)c7)CC6)nn5)CC4)C3)cc1)=N[C@@H](Cc1ncco1)c1nnc(C)n1-2 (stereo partly drawn) [I-772]	500 to 1500	< 500	–	–
< 500	–	Cc1sc2c(c1C)C(c1ccc(CCCC3CCCN(c4ccc(C(=O)N[C@H]5CC[C@H](Oc6ccc(C#N)c(Cl)c6)CC5)nn4)CC3)cn1)=N[C@@H](C)c1nnc(C)n1-2 (stereo partly drawn) [I-699]	–	< 500	–	> 3000
–	< 500	Cc1sc2c(c1C)C(c1ccc(C3CCC4(CC3)CCN(c3ccc(C(=O)N[C@H]5CC[C@H](Oc6ccc(C#N)c(Cl)c6)CC5)nn3)C4)cc1)=NC(C(F)(F)F)c1nnc(C)n1-2 (mixture of isomers) [I-742]	–	–	> 3000	> 3000
< 500	–	Cc1sc2c(c1C)C(c1cccc(N3CCC4(CCCN(c5ccc(C(=O)N[C@H]6CC[C@H](Oc7ccc(C#N)c(Cl)c7)CC6)nn5)C4)CC3)c1)=N[C@@H](C)c1nnc(C)n1-2 [I-687]	> 3000	< 500	–	–
< 500	–	Cc1sc2c(c1C)C(c1cccc(OC3CCC4(CC3)CCN(c3ccc(C(=O)N[C@H]5CC[C@H](Oc6ccc(C#N)c(Cl)c6)CC5)nn3)C4)c1)=N[C@@H](C)c1nnc(C)n1-2 (stereo partly drawn) [I-709]	–	–	< 500	> 3000
